Laboratory results reported in patent US20060252045A1, “Methods and materials for identifying agents which modulate bone remodeling and agents identified thereby” (priority 2003, published 2006).

How the values were obtained:
[1] = system: Wnt/β-catenin target gene expression in MC3T3 cells; test: Flexercell mechanical load gene expression in MC3T3 cells (real-time PCR); details: for load induced Frizzled 2, eNOS, Fos and Jun gene expression: MC3T3, 1-60 μM added 1 hr prior to load; for load induced Connexin 43, Cyclin D1, Wnt 10b, SFRP1 and COX-2 gene expression: MC3T3, 1-60 μM added 1 hr prior to load (3,400 με, 5 hrs)
Experimental: For these experiments, the mouse MC3T3 osteoblastic cells were cultured in alpha minimum essential media (αMEM) (Invitrogen) supplemented with 10% heat inactivated FBS, 1% glutamax (Invitrogen) and 1% penicillin/streptomycin (Invitrogen). […] For those samples being pretreated in serum free media the cells were washed twice each with 2 mL of basal αMEM media prior to adding the BSA containing media. […] The cells were then subjected to mechanical distortion equivalent to 3,400 με (2 Hz, 7200 cycles/hr), for 5 hrs using a FX-3000 Flexercell® strain unit (Flexcell International Corp). RNA was then harvested (using the Qiagen Rneasy mini kit) immediately or 24 hr post loading from both the mechanical strained samples as well as the non-strained controls. All data shown in the examples that utilize the FlexerCell were derived from the RNA immediately harvested following loading.
Real-time PCR was then performed for the indicated genes using mouse gene specific primers and probes as discussed above.
RNA was isolated immediately after application of load and processed for TaqMan® analysis. The transcripts analyzed were COX-2, eNOS, Connexin 43, SFRP1, Wnt10B, cyclin D1, Frizzled 2, WISP2, Fos and Jun (FIG. 15).
Here, Wnt 3A conditioned media was obtained from mouse L-cells transfected with murine Wnt 3A. The MC3T3 cells were seeded and cultured for 3 days in growth media until confluence, as described above. The media for the MC3T3 cells was then changed to BSA containing media, and the cells were incubated for 24 hours. The BSA-containing media was then removed and replaced with fresh BSA media at a final volume of 1 mL containing various amounts of L-cell Wnt 3A conditioned media or control conditioned media from untransfected L-cells. The amount of Wnt 3A conditioned media varied from 0.5, 2.0, 5.0, 10.0, 20.0 and 100 μL in a final volume of 1 ml serum free BSA media. The MC3T3 cells were then subjected to 3,400 με at 2 Hz, 7200 cycles/hr for 5 hours as described in the prior examples.

mouse calvariae = test: Mouse calvarial model: calvarial thickness (histomorphometry); type: in vivo; details: 20 μg/kg/day
Experimental: Following sacrifice by CO2 narcosis, calvariae were removed intact, soft tissues were gently dissected, and the bones were fixed in 70% ethanol for 24 h for further processing and analysis. Calvariae were then bisected perpendicular to the sagittal suture through the central portion of the parietal bones parallel to the lambdoidal and coronal sutures. The anterior portion of the calvaria was used for paraffin sections, and the posterior portion of the calvaria was used for frozen sections. Four to five 5 μm-thick representative, non-consecutive step sections were cut. The paraffin sections are routinely stained with hematoxylin and eosin (H&E) for the measurement of calvarial thickness. The frozen sections were used for alkaline phosphatase detection. To facilitate histomorphometric measurements, a standard length of 2 mm of each section from the edge of the sagittal suture to the muscle insertion at the lateral border of each bone was used. All measurements were made using the R&M Biometrics Inc. Bioquant Image Analysis System.

[2] = system: alkaline phosphatase activity in calvarial osteoblasts; test: Mouse calvarial model: alkaline phosphatase histochemical staining; type: in vivo; details: local administration, 7 days, vs vehicle
Experimental: Following sacrifice by CO2 narcosis, calvariae were removed intact, soft tissues were gently dissected, and the bones were fixed in 70% ethanol for 24 h for further processing and analysis. Calvariae were then bisected perpendicular to the sagittal suture through the central portion of the parietal bones parallel to the lambdoidal and coronal sutures. The anterior portion of the calvaria was used for paraffin sections, and the posterior portion of the calvaria was used for frozen sections. Four to five 5 μm-thick representative, non-consecutive step sections were cut. […] The frozen sections were used for alkaline phosphatase detection. To facilitate histomorphometric measurements, a standard length of 2 mm of each section from the edge of the sagittal suture to the muscle insertion at the lateral border of each bone was used. All measurements were made using the R&M Biometrics Inc. Bioquant Image Analysis System.
The activity of Alkaline Phosphatase (ALPase) was assessed with a histochemical stain using a Vector Red Alkaline Phosphatase Substrate Kit (Vector Laboratories, Inc. Burlingame, Calif.) in 6 μm frozen sections of the mouse parietal bone after fixing in 70% Ethanol.

β-catenin = test: Mouse calvarial model: β-catenin immunohistochemistry; type: in vivo; details: local injection
Experimental: Following sacrifice by CO2 narcosis, calvariae were removed intact, soft tissues were gently dissected, and the bones were fixed in 70% ethanol for 24 h for further processing and analysis. Calvariae were then bisected perpendicular to the sagittal suture through the central portion of the parietal bones parallel to the lambdoidal and coronal sutures. The anterior portion of the calvaria was used for paraffin sections, and the posterior portion of the calvaria was used for frozen sections. Four to five 5 μm-thick representative, non-consecutive step sections were cut.
After fixation, the anterior portion of the calvaria was decalcified in Surgipath Decalcifier II (Richmond, Ill.) for 7-8 h and then dehydrated in graded alcohol. Four to five 5 μm-thick representative, non-consecutive coronal step paraffin sections were cut. […] The binding of the antibody to the epitope was visualized (1 μg/1 mL) using an avidin-linked AP system (Vector Laboratories, Burlingame, Calif.). Controls comprised samples with the avidin-AP in the absence of primary antibody.

[3] = system: Dkk1 suppressed Wnt1/Wnt 3A TCF-signal in U2OS cells; test: Release of Dkk1 mediated inhibition of TCF-signal in U2OS cells; type: cell-based, human; details: Dkk1 0.1 μg/well co-transfected with Wnt1 or Wnt 3A
Experimental: The final readout is activation of Dkk1 mediated suppressed TCF-signal. […] The experiment represented in FIG. 2 involved U2OS (ATCC) bone cells and is based on the endogenous expression of LRP5/6 receptors. […] 10 μL of the 15× stock was added per well along with appropriately diluted vehicle (i.e., DMSO) control.

CS(=O)(=O)Nc1ccc([N+](=O)[O-])cc1OC1CCCCC1 [NS-398, N-(2-cyclohexyloxy-4-nitrophenyl)methanesulfonamide]
load induced Frizzled 2, eNOS, Fos and Jun gene expression [1]: no effect
load induced Connexin 43, Cyclin D1, Wnt 10b, SFRP1 and COX-2 gene expression [1]: block the induction
load induced Connexin 43, Cyclin D1, Wnt 10b, SFRP1 and COX-2 gene expression ([1]; listed as COX-2 inhibitor): does not induce transcription
load induced Frizzled 2, eNOS, Fos and Jun gene expression ([1]; listed as COX-2 inhibitor): independent of COX-2 activity

Human PTH (1-34): Human parathyroid hormone (1-34), positive control in the calvarial model (SVSEIQLMHNLGKHLNSMERVEWLRKKLQDVHNF; Parathyroid hormone; UniProt P01270 32-65, looked up, fragment)
effect on calvarial thickness (positive control) (mouse calvariae): significant increase in calvarial thickness
alkaline phosphatase (ALPase) activity in osteoblasts [2]: markedly enhanced
β-catenin expression in osteoblastic cells lining the periosteum (β-catenin): no effect

Wnt 3A
cyclin D1, connexin 43, SFRP1, Wnt 10B, WISP2, COX-2, FOS and JUN gene expression, alone ([1]; MC3T3, Wnt 3A conditioned media, no load): no effect

B1: Dkk1: Wnt antagonist co-transfected into U2OS cells; inhibits LRP5 activity (protein, UniProt O94907 32-266, looked up)
Dickkopf-related protein 1: TLNSVLNSNAIKNLPPPLGGAAGHPGSAVSAAPGILYPGGNKYQTIDNYQPYPCAEDEECGTDEYCASPTRGGDAGVQICLACRKRRKRCMRHAMCCPGNYCKNGICVSSDQNHFRGEIEETITESFGNDHSTLDGYSRRTTLSSKMYHTKGQEGSVCLRSSDCASGLCCARHFWSKICKPVLKEGQVCTKHRRKGSHGLEIFQRCYCGEGLSCRIQKDHHQASNSSRLHTCQRH
effect on Wnt1/Wnt 3A TCF-activity [3]: suppressed almost completely
